Laboratory results: patent publication US20020026052A1, “3-cyanoquinolines, 3-cyano-1,6-naphthyridines, and 3-cyano-1,7-naphthyridines as protein kinase inhibitors” (American Home Products Corporation, priority 2000, published 2002)
Several values for one entry are separate records, joined by “and”; a condition that tells them apart may be missing. Identical values can stand only once.

Experiments:
[1] = biological target: Rat2 fibroblasts stably transformed with v-Src/Hu c-Src fusion gene (Homo sapiens, UniProt P12931, cells depend on it, form not given); assay: Anchorage Independent Src-transformed Fibroblast Proliferation Assay; type: cell-based, Rat; details: suspension growth, MTS reagent on Day 5; read-out: anch-indep src-tx fib IC50
Protocol: Anchorage Independent Src-transformed Fibroblast Proliferation Assay
Rat2 fibroblasts stably transformed with a plasmid containing a CMV promotor controlled v-Src/Hu c-Src fusion gene in which the catalytic domain of human c-Src was inserted in place of the v-Src catalytic domain in the v-Src gene are used for the measurement of src dependent suspension growth. […] Multiple entries for a given compound indicate that it was tested multiple times.

Rat2 fibroblasts stably transformed with v-Src/Hu c-Src fusion gene, sequence (P12931 whole entry, change not shown, the tested form may be a part): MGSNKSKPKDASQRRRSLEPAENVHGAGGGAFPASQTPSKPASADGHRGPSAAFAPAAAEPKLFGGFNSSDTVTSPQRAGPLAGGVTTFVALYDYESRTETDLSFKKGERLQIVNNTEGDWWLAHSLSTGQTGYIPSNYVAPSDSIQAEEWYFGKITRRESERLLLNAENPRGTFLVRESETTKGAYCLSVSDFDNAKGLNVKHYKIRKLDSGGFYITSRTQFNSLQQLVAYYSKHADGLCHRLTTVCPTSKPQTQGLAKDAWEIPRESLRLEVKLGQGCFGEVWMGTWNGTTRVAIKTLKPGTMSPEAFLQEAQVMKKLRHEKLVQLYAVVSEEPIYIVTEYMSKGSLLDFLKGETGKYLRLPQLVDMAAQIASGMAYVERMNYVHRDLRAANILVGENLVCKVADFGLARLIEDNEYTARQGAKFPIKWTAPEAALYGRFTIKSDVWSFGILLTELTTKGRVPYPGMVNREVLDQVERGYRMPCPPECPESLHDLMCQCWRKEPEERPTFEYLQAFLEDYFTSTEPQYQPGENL

| SMILES | GI50 [1] | melting point |
| --- | --- | --- |
| COc1cc(Nc2c(C#N)cnc3cc(-c4csc(CN5CCOCC5)c4)c(OC)cc23)c(Cl)cc1Cl [Example 36, 4-(2,4-Dichloro-5-methoxyanilino)-6-methoxy-7-[5-(4-morpholinylmethyl)-3-thienyl]-3-quinolinecarbonitrile] | 160 nM and 200 nM | 148 to 150 °C |
| COc1ccc(C#Cc2ccc3c(Nc4cc(OC)c(Cl)cc4Cl)c(C#N)cnc3c2)cc1 [Example 90, 4-(2,4-dichloro-5-methoxyanilino)-7-[2-(4-methoxyphenyl)ethynyl]-3-quinolinecarbonitrile] | > 10000 nM | 225 to 226 °C |
| COc1cc(Nc2c(C#N)cnc3cc(-c4ccc(Oc5ccc(CN6CCOCC6)cc5)nc4)ccc23)c(Cl)cc1Cl [Example 193, 4-(2,4-Dichloro-5-methoxyanilino)-7-{6-[4-(4-morpholinylmethyl)phenoxy]-3-pyridinyl)-3-quinolinecarbonitrile] | > 10000 nM | 176 to 178 °C |
| COc1cc(Nc2c(C#N)cnc3cc(-c4ccc(CCl)cc4)ccc23)c(Cl)cc1Cl [Example 102, 7-[4-(Chloromethyl)phenyl]-4-(2,4-dichloro-5-methoxyanilino)-3-quinolinecarbonitrile] | 7500 nM | 236 to 239 °C |
| COc1cc(Nc2c(C#N)cnc3cc(-c4ccc(CN5CCSCC5)cc4)ccc23)c(Cl)cc1Cl [Example 153, 4-[(2,4-Dichloro-5-methoxyphenyl)amino]-7-[4-(4-thiomorpholinylmethyl)phenyl]-3-quinolinecarbonitrile] | 2800 nM and 2700 nM | 216 to 219 °C |
| CN(C)CC#Cc1ccc2c(Nc3ccc(Cl)cc3Cl)c(C#N)cnc2c1 [Example 15, 4-(2,4-dichloroanilino)-7-[3-(dimethylamino)-1-propynyl]-3-quinolinecarbonitrile] | > 10000 nM | 144 to 145 °C |
| COc1cc(Nc2c(C#N)cnc3cc(-c4ccc(CO)cc4)ccc23)c(Cl)cc1Cl [Example 101, 4-(2,4-Dichloro-5-methoxyanilino)-7-[4-(hydroxymethyl)phenyl]-3-quinolinecarbonitrile] | > 10000 nM | 264 to 267 °C |
| COc1cc(Nc2c(C#N)cnc3cc(-c4ccc(CN5CCCCC5C(=O)O)cc4)ccc23)c(Cl)cc1Cl (stereo not drawn) [Example 147, 1-{4-[3-Cyano-4-(2,4-dichloro-5-methoxyanilino)-7-quinolinyl]benzyl}-2-piperidinecarboxylic acid] | 4600 nM | 230 °C (dec.) |
| COc1cc(Nc2c(C#N)cnc3cc(-c4cnc(CN5CCOCC5)n4C)c(OC)cc23)c(Cl)cc1Cl [Example 232, 4-(2,4-Dichloro-5-methoxyanilino)-6-methoxy-7-[1-methyl-2-(4-morpholinylmethyl)-1H-imidazol-5-yl]-3-quinolinecarbonitrile] | 3500 nM | 248 to 252 °C |
| COc1cc(Nc2c(C#N)cnc3cc(-c4cccn4C(=O)OC(C)(C)C)ccc23)c(Cl)cc1Cl [Example 164, tert-butyl 2-[3-cyano-4-(2,4-dichloro-5-methoxyanilino)-7-quinolinyl]pyrrole-1-carboxylate] | > 10000 nM | 135 °C (dec.) |
| COc1cc(Nc2c(C#N)cnc3cc(-c4ccc(CO)n4C)ccc23)c(Cl)cc1Cl [Example 162, 4-(2,4-Dichloro-5-methoxyanilino)-7-[5-(hydroxymethyl)-1-methyl-lH-pyrrol-2-yl]-3-quinolinecarbonitrile] | > 10000 nM | 175 °C (dec.) |
| N#Cc1cnc2cc(-c3ccc(CN4CCOCC4)o3)ccc2c1Nc1ccc(Cl)cc1Cl [Example 13, 4-(2,4-Dichloroanilino)-7-[5-(4-morpholinylmethyl)-2-furyl]-3-quinolinecarbonitrile] | 1510 nM and 1590 nM | 118 to 120 °C |
| COc1cc(Nc2c(C#N)cnc3cc(-c4ccc(CN5CCN(C)CC5)n4C)ccc23)c(Cl)cc1Cl [Example 71, 4-(2,4-Dichloro-5-methoxyanilino)-7-{1-methyl-5-[(4-methyl-1-piperazinyl)methyl]-1H-pyrrol-2-yl}-3-quinolinecarbonitrile] | 6800 nM | 200 °C (dec.) |
| COc1cc(Nc2c(C#N)cnc3cc(-c4ccc(C=O)o4)ccc23)c(Cl)cc1Cl [Example 6, 4-(2,4-Dichloro-5-methoxyanilino)-7-(5-formyl-2-furyl)-3-quinolinecarbonitrile] | 1600 nM | > 250 °C |
| COc1cc(Nc2c(C#N)cnc3cc(C#CCO)ccc23)c(Cl)cc1Cl [Example 143, 4-(2,4-Dichloro-5-methoxyanilino)-7-(3-hydroxy-1-propynyl)-3-quinolinecarbonitrile] | > 10000 nM | 245 °C (dec.) |
| COc1cc(Nc2c(C#N)cnc3cc(-c4cccc5ccccc45)ccc23)c(Cl)cc1Cl [Example 116, 4-(2,4-Dichloro-5-methoxyanilino)-7-(1-naphthyl)-3-quinolinecarbonitrile] | > 10000 nM | 192 to 193 °C |
| N#Cc1cnc2cc(-c3ccc(CCN4CCOCC4)s3)ccc2c1Nc1ccc(Cl)cc1Cl [Example 9, 4-(2,4-Dichloroanilino)-7-{5-[2-(4-morpholinyl)ethyl]-2-thienyl}-3-quinoline-carbonitrile] | 2700 nM | 168 to 169 °C |
| COc1cc(Nc2c(C#N)cnc3cc(-c4cnc(C=O)n4C)c(OC)cc23)c(Cl)cc1Cl [Example 228, 4-(2,4-Dichloro-5-methoxyanilino)-7-(2-formyl-1-methyl-1H-imidazol-5-yl)-6-methoxy-3-quinolinecarbonitrile] | > 10000 nM | 141 to 144 °C |
| COc1cc(Nc2c(C#N)cnc3cc(C#CCCl)ccc23)c(Cl)cc1Cl [Example 152, 7-(3-Chloro-1-propynyl)-4-[(2,4-dichloro-5-methoxyphenyl)amino]-3-quinolinecarbonitrile] | 4800 nM and 3800 nM | 215 to 217 °C |
| COc1cc(Nc2c(C#N)cnc3cc(-c4ccc(CNCCS(=O)(=O)c5ccccc5)cc4)ccc23)c(Cl)cc1Cl [Example 85, 4-(2,4-dichloro-5-methoxyanilino)-7-[4-({[2-(phenylsulfonyl)ethyl)amino}methyl)phenyl]-3-quinolinecarbonitrile] | 10200 nM | 198 to 201 °C |

Continued by falling GI50 [1], values first:

| GI50 [1] | melting point | SMILES |
| --- | --- | --- |
| 1100 nM | 155 to 160 °C | COc1cc(Nc2c(C#N)cnc3cc(-c4ccc(CN(CCO)CCO)o4)ccc23)c(Cl)cc1Cl [Example 76, 7-(5-{[Bis(2-hydroxyethyl)amino]methyl}-2-furyl)-4-(2,4-dichloro-5-methoxyanilino)-3-quinolinecarbonitrile] |
| 850 nM | 245 to 246 °C | COc1cc(Nc2c(C#N)cnc3cc(-c4ccc(CNCCS(C)(=O)=O)cc4)ccc23)c(Cl)cc1Cl [Example 88, 4-(2,4-dichloro-5-methoxyanilino)-7-[4-({[2-(methylsulfonyl)ethyl]amino}methyl)phenyl]-3-quinolinecarbonitrile] |
| 790 nM | 174 to 178 °C | COc1cc(Nc2c(C#N)cnc3cc(-c4ccc(CN5CCOCC5)cc4)ccc23)c(Cl)cc1F [Example 235, 4-(2-Chloro-4-fluoro-5-methoxyanilino)-7-[4-(4-morpholinylmethyl)phenyl]-3-quinolinecarbonitrile] |
| 770 nM | 180 to 182 °C | COc1cc(Nc2c(C#N)cnc3cc(-c4ccc(CN5CCC[C@@H]5C(N)=O)cc4)ccc23)c(Cl)cc1Cl [Example 84, (2 R)-1-{4-[3-cyano-4-(2,4-dichloro-5-methoxyanilino)-7-quinolinyl]benzyl}-2-pyrrolidinecarboxamide] |
| 730 nM | 186 to 188 °C | COc1cc(Nc2c(C#N)cnc3cc(-c4ccc(CN5CCOCC5)c(CN5CCOCC5)c4)ccc23)c(Cl)cc1C [Example 133, 7-[3 ,4-Bis(4-morpholinylmethyl)phenyl]-4-(2-chloro-5-methoxy-4-methylanilino)-3-quinolinecarbonitrile] |
| 720 nM | 105 to 108 °C | COc1cc(Nc2c(C#N)cnc3cc(C#CCN4CCOCC4)c(OC)cc23)c(Cl)cc1Cl [Example 166, 4-(2,4-Dichloro-5-methoxyanilino)-6-methoxy-7-[3-(4-morpholinyl)-1-propynyl]-3-quinolinecarbonitrile] |
| 420 nM | 174 to 177 °C (dec.) | COc1cc(Nc2c(C#N)cnc3cc(-c4ccc(C5OCCO5)s4)ccc23)c(Cl)cc1Cl [Example 51, 4-(2,4-dichloro-5-methoxyanilino)-7-[5-(1,3-dioxolan-2-yl)-2-thienyl]-3-quinolinecarbonitrile] |
| 110 nM | 235 to 237 °C | COc1cc(Nc2c(C#N)cnc3cc(-c4ccc(N5CCOCC5)cc4)ccc23)c(Cl)cc1Cl [Example 67, 4-(2,4-Dichloro-5-methoxyanilino)-7-[4-(4-morpholinyl)phenyl]-3-quinolinecarbonitrile] |
| 90 nM | 186 to 188 °C | COC(=O)C1CCN(Cc2ccc(-c3ccc4c(Nc5cc(OC)c(Cl)cc5Cl)c(C#N)cnc4c3)nc2)CC1 [Example 176, 1-{6-[3-Cyano-4-(2,4-dichloro-5-methoxyphenylamino)-quinolin-7-yl]-pyridin-3-ylmethyl}-piperidine-4-carboxylic acid methyl ester] |
| 50 nM | 120 to 124 °C | COc1cc(Nc2c(C#N)cnc3cc(-c4cc(CN5CCOCC5)c(CN5CCOCC5)s4)c(OC)cc23)c(Cl)cc1Cl [Example 82, 7-[4,5-Bis(4-morpholinylmethyl)-2-thienyl]-4-(2,4-dichloro-5-methoxyanilino)-6-methoxy-3-quinolinecarbonitrile] |
